# Measured values published in patent publication US20180110754A1, “CENICRIVIROC FOR THE TREATMENT OF FIBROSIS” (Tobira Therapeutics, Inc., priority 2015, published 2018).
# Assay: Study 202: treatment-emergent laboratory abnormalities (DAIDS grades; CPK, ALT, AST, bilirubin)
# Format: in vivo
# Settings: All CVC (N = 115), EFV (N = 28)
# Description: The number of subjects with graded treatment-emergent laboratory abnormalities in selected liver parameters of interest is shown in Table 34. No Grade 4 ALT or AST elevations were observed. Except for one Grade 3 AST elevation, all ALT and AST elevations were Grade 1 or Grade 2. […] All abnormalities in bilirubin were Grade 1 or Grade 2. […]
smiles,measurement,setting,value
"O=C1Nc2ccc(Cl)cc2[C@@](C#CC2CC2)(C(F)(F)F)O1 [EFV, efavirenz, reference compound]","Any graded (Grade 1-4) treatment-emergent laboratory abnormality, n subjects",,25
same,"Laboratory abnormality, worst Grade 1, n subjects",,13
same,"Laboratory abnormality, worst Grade 2, n subjects",,8
same,"Laboratory abnormality, worst Grade 3 (Any Grade 3 abnormality), n subjects",,3
same,"Laboratory abnormality, worst Grade 4 (Any Grade 4 abnormality), n subjects",,1
same,"ALT, worst Grade 1, n subjects",through Week 48,2
same,"ALT, worst Grade 2, n subjects",through Week 48,0
same,"ALT, worst Grade 3, n subjects",through Week 48,0
same,"ALT, worst Grade 4, n subjects",through Week 48,0
same,"AST, worst Grade 1, n subjects",through Week 48,3
same,"AST, worst Grade 2, n subjects",through Week 48,0
same,"AST, worst Grade 3, n subjects",through Week 48,0
same,"AST, worst Grade 4, n subjects",through Week 48,0
same,"Alanine aminotransferase (ALT) abnormality, any grade, n subjects",through Week 48,2
same,"Any Grade 3 or Grade 4 laboratory abnormality, n subjects",through Week 48,4
same,"Aspartate aminotransferase (AST) abnormality, any grade, n subjects",through Week 48,3
same,"Aspartate aminotransferase (AST) increased (Grade 3 or 4), n subjects",through Week 48,0
same,"Bilirubin abnormality, any grade, n subjects",through Week 48,1
same,"Bilirubin, worst Grade 1, n subjects",through Week 48,1
same,"Bilirubin, worst Grade 2, n subjects",through Week 48,0
same,"Bilirubin, worst Grade 3, n subjects",through Week 48,0
same,"Bilirubin, worst Grade 4, n subjects",through Week 48,0
same,"CPK increased, worst Grade 3, n subjects",through Week 48,2
same,"CPK increased, worst Grade 4, n subjects",through Week 48,0
same,"Creatine phosphokinase (CPK) increased (Grade 3 or 4), n subjects",through Week 48,2
same,"Fibrinogen decreased (Grade 3 or 4), n subjects",through Week 48,0
same,"Fibrinogen decreased, worst Grade 3, n subjects",through Week 48,0
same,"Fibrinogen decreased, worst Grade 4, n subjects",through Week 48,0
same,"Hemoglobin decreased (Grade 3 or 4), n subjects",through Week 48,0
same,"Hemoglobin decreased, worst Grade 3, n subjects",through Week 48,0
same,"Hemoglobin decreased, worst Grade 4, n subjects",through Week 48,0
same,"Neutrophils decreased (Grade 3 or 4), n subjects",through Week 48,1
same,"Neutrophils decreased, worst Grade 3, n subjects",through Week 48,0
same,"Neutrophils decreased, worst Grade 4, n subjects",through Week 48,1
same,"Phosphate decreased (Grade 3 or 4), n subjects",through Week 48,1
same,"Phosphate decreased, worst Grade 3, n subjects",through Week 48,1
same,"Phosphate decreased, worst Grade 4, n subjects",through Week 48,0
same,"Prothrombin time/INR increased, worst Grade 3, n subjects",through Week 48,0
same,"Prothrombin time/INR increased, worst Grade 4, n subjects",through Week 48,0
same,"Prothrombin time/international normalized ratio increased (Grade 3 or 4), n subjects",through Week 48,0
